Results reported in PubChem BioAssay AID248 (DTP/NCI, 2004).
Several values for one entry are separate records, joined by “and”; a condition that tells them apart may be missing. Equal values may be shown once. Toxic doses and inconclusive results are not listed. Rule as the data show it: active = T/C of 150% or more; inactive = T/C below 125%.

System: L1210 leukemia ip in BDF1 mice, survival T/C
Experiment: NCI In Vivo Anticancer Drug Screen. Data for tumor model L1210 Leukemia (intraperitoneal) in B6D2F1 (BDF1) mice
Settings: endpoint: mean survival time, higher = longer survival
How it was run: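 Read-out is survival time, reported as the treated-group measurement over the vehicle-control measurement.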

[1] = dose: 100.0 mg/kg/injection, schedule: Q01DX001 (ip), vehicle: saline
[2] = dose: 200.0 mg/kg/injection, schedule: Q01DX001 (ip), vehicle: saline
[3] = dose: 400.0 mg/kg/injection, schedule: Q01DX001 (ip), vehicle: saline
[4] = dose: 100.0 mg/kg/injection, schedule: Q04DX002 (ip), vehicle: Klucel (hydroxypropylcellulose) (HPC)
[5] = dose: 200.0 mg/kg/injection, schedule: Q04DX002 (ip), vehicle: Klucel (hydroxypropylcellulose) (HPC)
[6] = dose: 400.0 mg/kg/injection, schedule: Q04DX002 (ip), vehicle: Klucel (hydroxypropylcellulose) (HPC)
[7] = dose: 50.0 mg/kg/injection, schedule: Q01DX001 (ip), vehicle: carboxymethylcellulose (CMC)
[8] = dose: 100.0 mg/kg/injection, schedule: Q01DX001 (ip), vehicle: carboxymethylcellulose (CMC)
[9] = dose: 200.0 mg/kg/injection, schedule: Q01DX001 (ip), vehicle: carboxymethylcellulose (CMC)
[10] = dose: 400.0 mg/kg/injection, schedule: Q01DX001 (ip), vehicle: carboxymethylcellulose (CMC)
[11] = dose: 50.0 mg/kg/injection, schedule: Q01DX009 (ip), vehicle: Klucel (hydroxypropylcellulose) (HPC)
[12] = dose: 100.0 mg/kg/injection, schedule: Q01DX009 (ip), vehicle: Klucel (hydroxypropylcellulose) (HPC)
[13] = dose: 200.0 mg/kg/injection, schedule: Q01DX009 (ip), vehicle: Klucel (hydroxypropylcellulose) (HPC)
[14] = dose: 100.0 mg/kg/injection, schedule: Q04DX003 (ip), vehicle: Klucel (hydroxypropylcellulose) (HPC)
[15] = dose: 200.0 mg/kg/injection, schedule: Q04DX003 (ip), vehicle: Klucel (hydroxypropylcellulose) (HPC)
[16] = dose: 400.0 mg/kg/injection, schedule: Q04DX003 (ip), vehicle: Klucel (hydroxypropylcellulose) (HPC)
[17] = dose: 50.0 mg/kg/injection, schedule: Q01DX009 (ip), vehicle: saline with Tween-80
[18] = dose: 100.0 mg/kg/injection, schedule: Q01DX009 (ip), vehicle: saline with Tween-80
[19] = dose: 200.0 mg/kg/injection, schedule: Q01DX009 (ip), vehicle: saline with Tween-80

Measured: T/C

O=C(Nc1cccc2ncccc12)c1ccc(C(=O)Nc2cccc3ncccc23)cc1
inactive: [1] 101 % of control | [2] 93 % of control | [3] 91 % of control

[CH3][Sn]([CH3])([CH3])[O]C(=O)CCl
inactive: dose: 0.78 mg/kg/injection, schedule: Q01DX009 (ip), vehicle: Klucel (hydroxypropylcellulose) (HPC) 97 % of control | dose: 0.78 mg/kg/injection, schedule: Q04DX002 (ip), vehicle: Klucel (hydroxypropylcellulose) (HPC) 97 % of control | dose: 1.56 mg/kg/injection, schedule: Q01DX009 (ip), vehicle: Klucel (hydroxypropylcellulose) (HPC) 87 % of control | dose: 1.56 mg/kg/injection, schedule: Q04DX002 (ip), vehicle: Klucel (hydroxypropylcellulose) (HPC) 93 % of control | dose: 3.12 mg/kg/injection, schedule: Q04DX002 (ip), vehicle: Klucel (hydroxypropylcellulose) (HPC) 93 % of control

O=[N+]([O-])c1ccccc1C(c1ccc2ccccc2c1O)N1CCOCC1 (stereo not drawn)
inactive: dose: 100.0 mg/kg/injection, schedule: Q01DX001 (ip), vehicle: saline sonified 86 % of control | dose: 200.0 mg/kg/injection, schedule: Q01DX001 (ip), vehicle: saline sonified 91 % of control | dose: 400.0 mg/kg/injection, schedule: Q01DX001 (ip), vehicle: saline sonified 90 % of control

CC(=O)OC12C=CC(C(C)=C1)C1C(=O)C=CC(=O)C12 (stereo not drawn)
inactive: [1] 103 % of control | dose: 100.0 mg/kg/injection, schedule: Q01DX009 (ip), vehicle: saline 98 % of control | dose: 100.0 mg/kg/injection, schedule: Q04DX003 (ip), vehicle: saline 103 % of control | [2] 97 % of control | dose: 200.0 mg/kg/injection, schedule: Q01DX009 (ip), vehicle: saline 89 % of control | dose: 200.0 mg/kg/injection, schedule: Q04DX003 (ip), vehicle: saline 103 % of control | [3] 97 % of control | dose: 400.0 mg/kg/injection, schedule: Q01DX009 (ip), vehicle: saline 90 % of control | dose: 400.0 mg/kg/injection, schedule: Q04DX003 (ip), vehicle: saline 87 % of control

[Cl][Bi]([Cl])([c]1ccccc1)([c]1ccccc1)[c]1ccccc1
inactive: [4] 98 % of control | [5] 92 % of control | [6] 98 % of control

CCCC(NC(=O)OCC)NC(=O)OCC
inactive: [7] 95 % of control | [8] 92 % of control | [9] 90 % of control | [10] 92 % of control

Nc1nc(N)c(CCCCc2ccccc2)c(Cc2ccccc2)n1
inactive: [11] 98 % of control | [12] 106 % of control | [13] 98 % of control

O=C(NC(=S)Nc1ccccc1Cl)c1ccccc1
inactive: [14] 94 % of control | [15] 96 % of control | [16] 97 % of control

CC1(C)N=C(N)N=C(N)N1c1ccc(CCCCc2ccc(Cl)c(S(=O)(=O)F)c2)c(Cl)c1
inactive: dose: 12.5 mg/kg/injection, schedule: Q01DX009 (ip), vehicle: saline sonified 93 % of control | dose: 12.5 mg/kg/injection, schedule: Q04DX003 (ip), vehicle: saline sonified 96 % of control | dose: 25.0 mg/kg/injection, schedule: Q01DX009 (ip), vehicle: saline sonified 94 % of control | dose: 25.0 mg/kg/injection, schedule: Q04DX003 (ip), vehicle: saline sonified 93 % of control | dose: 50.0 mg/kg/injection, schedule: Q01DX009 (ip), vehicle: saline sonified 98 % of control | dose: 50.0 mg/kg/injection, schedule: Q04DX003 (ip), vehicle: saline sonified 93 % of control

O=C(NCCCl)Nn1c2ccccc2c2ccccc21
inactive: [12] 86 % of control | [14] 104 % of control | [13] 95 % of control | [15] 98 % of control | dose: 400.0 mg/kg/injection, schedule: Q01DX009 (ip), vehicle: Klucel (hydroxypropylcellulose) (HPC) 88 % of control | [16] 106 % of control

Cc1ccccc1NP1(=O)OCCCN1Cc1ccc(Cl)c(Cl)c1 (stereo not drawn)
inactive: [7] 98 % of control | [8] 98 % of control | [9] 98 % of control | [10] 93 % of control

CCCCCCCCCCCCn1cnc2c(=S)nc[nH]c21
inactive: dose: 12.5 mg/kg/injection, schedule: Q01DX005 (ip), vehicle: other 106 % of control | dose: 25.0 mg/kg/injection, schedule: Q01DX005 (ip), vehicle: other 101 % of control | dose: 50.0 mg/kg/injection, schedule: Q01DX005 (ip), vehicle: other 100 % of control | dose: 100.0 mg/kg/injection, schedule: Q01DX005 (ip), vehicle: other 106 % of control | dose: 200.0 mg/kg/injection, schedule: Q01DX005 (ip), vehicle: other 89 % of control

Cc1cccc(C)c1C1=CCCCC1
inactive: dose: 50.0 mg/kg/injection, schedule: Q01DX001 (ip), vehicle: saline 108 % of control | [1] 104 % of control | [2] 104 % of control | [3] 110 % of control

O=C(Nc1ccc(F)cc1)Nc1cccc(C(F)(F)F)c1
inactive: [11] 103 % of control | [12] 107 % of control | [13] 92 % of control

C/C=C/C1CC2CC(C1C)C2(C)C (stereo not drawn)
inactive: [17] 97 % of control | [18] 97 % of control | [19] 101 % of control

CC1NC(=O)NC1CCCCCC(=O)O (stereo not drawn)
inactive: dose: 50.0 mg/kg/injection, schedule: Q01DX001 (ip), vehicle: Klucel (hydroxypropylcellulose) (HPC) 98 % of control | dose: 100.0 mg/kg/injection, schedule: Q01DX001 (ip), vehicle: Klucel (hydroxypropylcellulose) (HPC) 98 % of control | [8] 97 % of control | dose: 200.0 mg/kg/injection, schedule: Q01DX001 (ip), vehicle: Klucel (hydroxypropylcellulose) (HPC) 96 % of control | [9] 98 % of control | [10] 97 % of control

O=C(O)C1C2C=CC(O2)C1C(=O)NCc1cccnc1 (stereo not drawn)
inactive: [1] 106 % of control | [2] 94 % of control | [3] 95 % of control

CCCCNC(=O)Oc1ccc(C(=O)OCCC)cc1
inactive: [17] 102 % of control and 106 % of control | dose: 100.0 mg/kg/injection, schedule: Q01DX009 (ip), vehicle: other 110 % of control and 86 % of control | [18] 103 % of control and 104 % of control | dose: 100.0 mg/kg/injection, schedule: Q04DX002 (ip), vehicle: other 100 % of control and 101 % of control | dose: 200.0 mg/kg/injection, schedule: Q01DX009 (ip), vehicle: other 89 % of control | [19] 96 % of control and 103 % of control | dose: 200.0 mg/kg/injection, schedule: Q04DX002 (ip), vehicle: other 93 % of control and 105 % of control | dose: 400.0 mg/kg/injection, schedule: Q01DX009 (ip), vehicle: other 93 % of control and 90 % of control | dose: 400.0 mg/kg/injection, schedule: Q04DX002 (ip), vehicle: other 96 % of control and 92 % of control

Nc1nnnn1-c1ccc(O)cc1
inactive: dose: 100.0 mg/kg/injection, schedule: Q01DX001 (ip), vehicle: saline with Tween-80 101 % of control | dose: 200.0 mg/kg/injection, schedule: Q01DX001 (ip), vehicle: saline with Tween-80 103 % of control | dose: 400.0 mg/kg/injection, schedule: Q01DX001 (ip), vehicle: saline with Tween-80 99 % of control

CC1(C)CC(=O)CC(C)(C#N)C1 (stereo not drawn)
inactive: dose: 6.25 mg/kg/injection, schedule: Q01DX009 (ip), vehicle: Klucel (hydroxypropylcellulose) (HPC) 97 % of control | dose: 12.5 mg/kg/injection, schedule: Q01DX009 (ip), vehicle: Klucel (hydroxypropylcellulose) (HPC) 99 % of control | dose: 12.5 mg/kg/injection, schedule: Q04DX003 (ip), vehicle: Klucel (hydroxypropylcellulose) (HPC) 91 % of control | dose: 25.0 mg/kg/injection, schedule: Q04DX003 (ip), vehicle: Klucel (hydroxypropylcellulose) (HPC) 93 % of control

COC(=O)CC1CC(C=O)C1 (stereo not drawn)
inactive: dose: 100.0 mg/kg/injection, schedule: Q04DX002 (ip), vehicle: saline 105 % of control | dose: 200.0 mg/kg/injection, schedule: Q04DX002 (ip), vehicle: saline 102 % of control | dose: 400.0 mg/kg/injection, schedule: Q04DX002 (ip), vehicle: saline 105 % of control

CCC(C)C(N)C(=O)O (stereo not drawn)
inactive: [14] 103 % of control | [15] 106 % of control | [16] 101 % of control

COC(=O)C1C2C=CC(C3C=CC32)C1C(=O)OC (stereo not drawn)
inactive: [4] 103 % of control | [5] 97 % of control | [6] 103 % of control
